pIC50: −log10 of the molar value.
Experiments:
[1] = tested on: K+-stimulated isolated rat aorta; assay: K+-stimulated isolated rat aorta test; details: relaxation of contraction triggered by 25 mM KCl in rat aorta rings; asterisk (*) = low activity, only approximate value
Procedure: K^+-stimulated Isolated Rat Aorta Test
Male rats weighing about 300 g are killed painlessly by a blow to the neck and quickly exsanguinated. The thoracic cavity is opened and the aorta is carefully resectioned. It is placed in a Petri dish filled with Krebs solution, and surrounding connective and fatty tissue is removed. Two rings are prepared. The rings are each suspended in an organ bath, They are attached at the bottom to a hook and at the top to an electrical force transducer which is able to measure precisely contractions of 0-10 grams in strength. The measured contractions are amplified by means of a bridge amplifier and recorded with a thermal plotter.
The organ baths are filled with Krebs solution at 37° C. through which an O2/CO2 mixture is bubbled thoroughly and which has the following composition (mmol/1): NaCl 118.4; KCl 4.7; CaCl2 2.5; KH2PO4 1.2; MgSO4 1.2; NaHCO3 25; glucose 11.
The rings are stretched with a basic tone of about 0.5 g, After an equilibration time of about 30 minutes, the rings are caused to undergo contraction by depolarization (addition of 25 mM KCl to the organ bath). The contractions of the rings of aorta, triggered by the depolarization, quickly reach a plateau, As soon as this plateau is reached (“100% value”), the test substance is added to the organ bath, initially at low concentrations, for example 10^−8M, and then in increasing doses at regular intervals, until the contractions reduce or the final concentration of 10^−4M is reached. Each test substance is tested 2-4 times in this way.
For purposes of evaluation, the height of the contractions registered on the plotter paper is measured for each experiment after the action of each test concentration added. The IC50 value can be calculated in this way in relation to the original height of contractions before the addition of substance (100%).

[2] = tested on: NIH 3T3 fibroblasts; assay: Cell growth potentiation test (potentiation of mitogenic activity of fetal calf serum, EZ4U cellular proliferation assay); assay type: cell-based; details: for Cell growth relative to FCS alone (%): 100% = same growth as base concentration of FCS alone; for Cell growth potentiation relative to minoxidil at 100 μM (%): 0% = base concentration of FCS alone (5% or 3%), 100% = minoxidil at 100 μM
Excerpt: To test for activity in mammalian hair growth stimulation, an in vitro test of cell growth potentiation has been applied to a number of the compounds of the invention and prior art compounds 11901 and 11903. The test involves an assay of the call growth due to potentiation of the mitogenic activity of fetal calf serum (FCS). See WO97/14036. Details of materials, methods and results are as follows.
Tissue culture plastics were obtained from Beckton Dickinson (Cowley, Oxford, UK). NIH 3T3 fibroblasts were obtained from the European collection of animal cell cultures (Salisbury, Wilts, UK). Dulbecco's modified Eagle's medium (DMEM) was obtained from Flow Laboratories (Rickmansworth, Herts, UK). L-Glutamine and fetal calf serum were from Gibco (Paisley, UK).
The EZ4U cell proliferation assay kits were obtained from Cozart Bioscience Ltd (Abingdon, Oxon, UK). All other chemicals were obtained from Sigma Chemical Company Ltd. (Poole, Dorset, UK), and of the highest grade available.
NIH 3T3 fibroblasts were maintained in Dulbecco's modified Eagle's medium supplemented with 10% FCS and 2 mM L-glutamine in 150 cm^2 tissue culture flasks at 37° C. in an atmosphere of 5% CO2/95% air. Antibiotics were omitted. Medium was changed every 3 days, and passages were carried out twice a week before cells reached confluence. Prior to experiments, cells were passaged and plated out to give 10^4 cell/ml in 96-well multi-well plates. Cells were incubated for 24 hours with Dulbecco's modified Eagle's medium supplemented with 10% FCS to aid attachment. This was then removed and the experimental medium added.
Compounds were prepared following a general preparation protocol. This protocol consisted of taking a mass of compound, dissolving in the recommended solvent (40 μl) such that in the final preparation the concentrations of compound and solvent would be 100 μM and 0.1 respectively. In theory this volume was 40 μl, however for accuracy a mass larger than the required mass was dispensed and the solvent volume varied accordingly; only 40 μl of this solution was required for the next stage. The 40 μl volume was then added to a volume of FCS (1.2 ml), such that in the final preparation the concentration of FCS would be 3%. This solution was then added to DMEM containing L-glutamine (2 mM) (18.76 ml). The resulting solution of 20 ml volume was filter stabilised. This solution is now 200 μM in compound, 6% FCS and 0.2% solvent, and so was diluted 1:1 with the DMEM containing L-glutamine. This 100 μM stock could then be diluted serially to provide lower concentrations of the compound of interest. Solutions containing different ratios of compound and FCS were obtained in a similar manner.
This was performed, following the manufacturer's instructions, using an EZ4U assay kit, which is based upon the conversion of tetrazolium salt to coloured formazam derivatives by mitochondria (Hansen et al, 1989). Plates were read on a plate reader (Anthos Labtec HT2), using a measurement filter (450 nm), with a reference filter (620 nm) with a low Shaking density for 5 seconds prior to measurement. Control experiments were made against counting cells in a haemocytometer (sanders et al, 1996). There is some variance of results between different batches of FCS employed.
A series of cell growth potentiation/inhibition tests has been carried out in accordance with the procedure described above on some of the compounds of the invention, on compounds 11901 and 11903 and on minoxidil (a compound well known for its hair growth stimulation effects). Because of some variability of results with different batches of FCS, each compound was tested in a solution of a base concentration of FCS and was compared with minoxidil in a solution of the same base concentration of FCS and with a solution having the same base concentration of FCS alone (no additive), using the same FCS batch in order to provide standardised comparisons for that compound. […]

SMILES	pIC50 [1]	Cell growth relative to FCS alone (%) ([2]; Compound at 10 μM)	Cell growth relative to FCS alone (%) ([2]; Compound at 100 μM)	melting point [°C]	Cell growth potentiation relative to minoxidil at 100 μM (%) ([2]; Compound at 10 μM)	Cell growth potentiation relative to minoxidil at 100 μM (%) ([2]; Compound at 100 μM)
CC1(C)C[C@@]2(SCC[S@+]2[O-])c2sc(C#N)cc2O1 (relative stereo) [Compound 50067, rel-(1S, 2S)-6′,7′-Dihydro-5′,5′-dimethylspiro[1,3-dithiolane-2,7′-5H-thieno[3,2-b]pyran]-2′-carbonitrile-1-oxide]	~4.00	96	69			
CC1=C(C)C[C@@]2(CC(C)(C)Oc3cc(C#N)sc32)[S@+]([O-])C1 (relative stereo) [Compound 50097, rel-(1′R, 2′S)-3′,6,6′,7-Tetrahydro-4′,5,5′,5-tetramethyl-1′-oxospiro[5H-thieno[3,2-b]pyran-7,2′-2H-thiopyran]-2-carbonitrile]	~5.00			179 to 183	242	257
CC1(C)Oc2cc(S(=O)(=O)c3ccccc3)sc2[C@@H](N2CCCC2=O)[C@@H]1O (relative stereo) [Compound 50123, rel-(6S,7S)-6,7-Dihydro-6-hydroxy-5,5-dimethyl-7-(2-oxo-1-pyrrolidinyl)-2-(phenylsulphonyl)-5H-thieno[3,2-b]pyran]	7.59		94		120	
CC1(C)CC2(SCCCS2)c2sccc2O1 [Compound 50048, 6′,7′-Dihydro-5′,5′-dimethylspiro[1,3-dithiane-2,7′-5H-thieno[3,2-b]pyran]]	5.54			121 to 123		
CC1=C(C)CC2(CC(C)(C)Oc3ccsc32)SC1 (stereo not drawn) [Compound 50049, 3′,6,6′,7-Tetrahydro-4′,5,5,5′-tetramethylspiro[5H-thieno[3,2-b]pyran-7,2′-2H-thiopyran]]	~5.00	100	50	90 to 92		
CC1(C)CC2(SCCCS2)c2sc(C#N)cc2O1 [Compound 50057, 6′,7′-Dihydro-5′,5′-dimethylspiro[1,3-dithiane-2,7′-5H-thieno[3,2-b]pyran]-2′-carbonitrile]	~5.00	98				33
CC1=C(C)CC2(CC(C)(C)Oc3cc(C#N)sc32)SC1 (stereo not drawn) [Compound 50092, 3′,6,6′,7-Tetrahydro-4′,5,5,5′-tetramethylspiro[5H-thieno[3,2-b]pyran-7,2′-2H-thiopyran]-2-carbonitrile]	~5.00			148 to 149	214	71
CC1(C)C=C(N2CCCC2=O)c2sc(S(=O)(=O)c3ccccc3)cc2O1 [Compound 50109, 5,5-Dimethyl-7-(2-oxo-1-pyrrolidinyl)-2-(phenylsulphonyl)-5H-thieno[3,2-b]pyran]	6.62				233	122
CC1=C(C)CC2(CC(C)(C)Oc3cc(S(=O)(=O)c4ccccc4)sc32)SC1 (stereo not drawn) [Compound 50121, 3′,6,6′,7-Tetrahydro-4′,5,5,5′-tetramethyl-2-(phenylsulphonyl)spiro[5H-thieno[3,2-b]pyran-7,2′-2H-thiopyran]]	< 4.00			175 to 178	285	271
